# Measurements: EP0908457B1, “3-(1,2-benzisothiazol- and isoxazol-5-Y1)-2,4(1H,3H)-pyrimidinedione or thione and 3-(1,2-benzisothiazol- and isoxazol-5-y1)-4(3H)-pyrimidinone or thione herbicidal agents” (BASF AKTIENGESELLSCHAFT, priority 1997, dated 1999)
# Like-named read-outs stand apart in the source and are kept apart here.
# Experiments:
# [1] = test system: Cyperus iria; assay: Preemergence weed control under flooded paddy conditions, CYPIR (Rice Flatsedge); format: in vivo; conditions: flooded paddy; for CYPIR: herbicidal effect rating 0-9, three to four weeks after treatment; as to herbicidal effect rating, CYPIR: meaning of each grade not given here
# [2] = test system: Monochoria vaginalis, Presl.; assay: Preemergence weed control under flooded paddy conditions, MOOVA (Monochoria); format: in vivo; conditions: flooded paddy; for MOOVA: herbicidal effect rating 0-9, three to four weeks after treatment; as to herbicidal effect rating, MOOVA: meaning of each grade not given here
# [3] = test system: Sagittaria pygmaea, L.; assay: Preemergence weed control under flooded paddy conditions, SAGPY (Arrowhead (Pygmaea)); format: in vivo; conditions: flooded paddy; for SAGPY: herbicidal effect rating 0-9, three to four weeks after treatment; as to herbicidal effect rating, SAGPY: meaning of each grade not given here
# [4] = test system: Oryza sativa, (L.) Tebonnet; conditions: in vivo
# [5] = test system: Echinochloa oryzoides (Ard.) Fritsch.; assay: Preemergence weed control under flooded paddy conditions, ECHORC (Watergrass (Calif.)); format: in vivo; conditions: flooded paddy; for ECHORC: herbicidal effect rating 0-9, three to four weeks after treatment; as to herbicidal effect rating, ECHORC: meaning of each grade not given here
# [6] = test system: Cyperus serotinus, Rottb.; assay: Preemergence weed control under flooded paddy conditions, CYPSE (Flatsedge); format: in vivo; conditions: for CYPSE: herbicidal effect rating 0-9, three to four weeks after treatment; as to herbicidal effect rating, CYPSE: meaning of each grade not given here
# [7] = test system: Oryza sativa, (L.) Tebonnet; assay: Rice tolerance to post-transplant applications under flooded paddy conditions (Example 187), ORYSAT (Rice, Tebonnet); conditions: rated 3-4 weeks after treatment; as to herbicidal effect rating ORYSAT: meaning of each grade not given here
# [8] = test system: Cyperus serotinus, Rottb.; assay: Postemergence weed control under flooded paddy conditions, CYPSE (Flatsedge); format: in vivo; conditions: rated three to four weeks after treatment
# [9] = test system: Cyperus iria; assay: Postemergence weed control under flooded paddy conditions, CYPIR (Rice Flatsedge); format: in vivo; conditions: rated three to four weeks after treatment
# [10] = test system: Echinochloa oryzoides (Ard.) Fritsch.; assay: Postemergence weed control under flooded paddy conditions, ECHORC (Watergrass (Calif.)); format: in vivo; conditions: rated three to four weeks after treatment
# [11] = test system: Monochoria vaginalis, Presl.; assay: Postemergence weed control under flooded paddy conditions, MOOVA (Monochoria); format: in vivo; conditions: rated three to four weeks after treatment
# [12] = test system: Sagittaria pygmaea, L.; assay: Postemergence weed control under flooded paddy conditions, SAGPY (Arrowhead (Pygmaea)); format: in vivo; conditions: rated three to four weeks after treatment
# [13] = test system: Oryza sativa, (L.) Tebonnet; assay: Rice tolerance to post-transplant applications under flooded paddy conditions (Example 188), ORYSAT (Rice, Tebonnet); conditions: rated three to four weeks after treatment
# [14] = 0.0313 kg/ha, preemergence, rated three to four weeks after treatment
# [15] = 0.0625 kg/ha, preemergence, rated three to four weeks after treatment
# [16] = 0.1250 kg/ha, preemergence, rated three to four weeks after treatment
# [17] = 0.2500 kg/ha, preemergence, rated three to four weeks after treatment
# [18] = Rate 0.0320 kg/ha, preemergence, rated three to four weeks after treatment
# [19] = Rate 0.0620 kg/ha, preemergence, rated three to four weeks after treatment
# [20] = Rate 0.1250 kg/ha, preemergence, rated three to four weeks after treatment
# [21] = Rate 0.2500 kg/ha, preemergence, rated three to four weeks after treatment
# [22] = Rate 0.2500 kg/ha, preemergence weeds, rated three to four weeks after treatment
# [23] = 0.0320 kg/ha, preemergence weeds
# [24] = 0.0620 kg/ha, preemergence weeds
# [25] = 0.1250 kg/ha, preemergence weeds
# [26] = 0.2500 kg/ha, preemergence weeds
# [27] = Rate 0.0320 kg/ha, preemergence, rated 3-4 weeks after treatment
# [28] = Rate 0.0620 kg/ha, preemergence, rated 3-4 weeks after treatment
# [29] = Rate 0.1250 kg/ha, preemergence, rated 3-4 weeks after treatment
# [30] = Rate 0.2500 kg/ha, preemergence, rated 3-4 weeks after treatment
# [31] = Rate 0.5000 kg/ha, preemergence, rated 3-4 weeks after treatment
compound,measurement,setting,value
"1-Methyl-3-(2-methyl-3-oxo-1,2-benzisoxazolin-5-yl)-6-(trifluoromethyl)-2,4(1H,3H)-pyrimidinedione [Example 44]","herbicidal effect rating, CYPIR",[1]; [14],0.0
same,"herbicidal effect rating, CYPIR",[1]; [15],0.0
same,"herbicidal effect rating, CYPIR",[1]; [16],0.0
same,"herbicidal effect rating, CYPIR",[1]; [17],0.0
same,"herbicidal effect rating, MOOVA",[2]; [14],0.0
same,"herbicidal effect rating, MOOVA",[2]; [15],0.0
same,"herbicidal effect rating, MOOVA",[2]; [16],0.0
same,"herbicidal effect rating, MOOVA",[2]; [17],0.0
same,"herbicidal effect rating, SAGPY",[3]; [14],0.0
same,"herbicidal effect rating, SAGPY",[3]; [15],0.0
same,"herbicidal effect rating, SAGPY",[3]; [16],0.0
same,"herbicidal effect rating, SAGPY",[3]; [17],0.0
same,"herbicidal effect rating, ORYSAT (rice tolerance)",[4],0.0
same,"herbicidal effect rating, ECHORC",[5]; [14],0.0
same,"herbicidal effect rating, ECHORC",[5]; [15],0.0
same,"herbicidal effect rating, ECHORC",[5]; [16],0.0
same,"herbicidal effect rating, ECHORC",[5]; [17],0.0
same,"herbicidal effect rating, CYPSE",[6]; [14],0.0
same,"herbicidal effect rating, CYPSE",[6]; [15],0.0
same,"herbicidal effect rating, CYPSE",[6]; [16],0.0
same,"herbicidal effect rating, CYPSE",[6]; [17],0.0
"Cn1c(C(F)(F)F)cc(=O)n(-c2ccc3snc(CC=NO)c3c2)c1=O [Example 266, 1,2-Benzisothiazole-3-acetaldehyde, 5-[3,6-dihydro-3-methyl-2,6-dioxo-4-(trifluoromethyl)-1(2H)-pyrimidinyl]-, 3-oxime, (E)- and (Z)-]",CYPIR herbicidal effect rating,[1]; [18],5.0
same,CYPIR herbicidal effect rating,[1]; [19],5.0
same,CYPIR herbicidal effect rating,[1]; [20],5.0
same,CYPIR herbicidal effect rating,[1]; [21],9.0
same,MOOVA herbicidal effect rating,[2]; [18],9.0
same,MOOVA herbicidal effect rating,[2]; [19],9.0
same,MOOVA herbicidal effect rating,[2]; [20],9.0
same,MOOVA herbicidal effect rating,[2]; [21],9.0
same,SAGPY herbicidal effect rating,[3]; [18],0.0
same,SAGPY herbicidal effect rating,[3]; [19],0.0
same,SAGPY herbicidal effect rating,[3]; [20],0.0
same,SAGPY herbicidal effect rating,[3]; [21],0.0
same,ORYSAT herbicidal effect rating,[4],0.0
same,ECHORC herbicidal effect rating,[5]; [18],0.0
same,ECHORC herbicidal effect rating,[5]; [19],0.0
same,ECHORC herbicidal effect rating,[5]; [20],0.0
same,ECHORC herbicidal effect rating,[5]; [21],0.0
same,CYPSE herbicidal effect rating,[6]; [18],0.0
same,CYPSE herbicidal effect rating,[6]; [19],0.0
same,CYPSE herbicidal effect rating,[6]; [20],0.0
same,CYPSE herbicidal effect rating,[6]; [21],3.0
Cn1c(C(F)(F)F)cc(=O)n(-c2ccc3snc(CNS(C)(=O)=O)c3c2)c1=O [Example 305],"herbicidal effect rating, CYPIR",[1]; [22],0.0
same,"herbicidal effect rating, MOOVA",[2]; [22],0.0
same,"herbicidal effect rating, SAGPY",[3]; [22],0.0
same,herbicidal effect rating ORYSAT,[4],0.0
same,"herbicidal effect rating, ECHORC",[5]; [22],0.0
same,"herbicidal effect rating, CYPSE",[6]; [22],0.0
"COC(OC)c1nsc2ccc(-n3c(=O)cc(C(F)(F)F)n(C)c3=O)cc12 [Example 453, 1,2-Benzisothiazole-3-carboxaldehyde, 5-[3,6-dihydro-3-methyl-2,6-dioxo-4-(trifluoromethyl)-1(2H)-pyrimidinyl]-, 3-(dimethylacetal)]",CYPIR,[1]; [23],9.0
same,CYPIR,[1]; [24],9.0
same,CYPIR,[1]; [25],9.0
same,CYPIR,[1]; [26],9.0
same,MOOVA,[2]; [23],9.0
same,MOOVA,[2]; [24],9.0
same,MOOVA,[2]; [25],9.0
same,MOOVA,[2]; [26],9.0
same,SAGPY,[3]; [23],9.0
same,SAGPY,[3]; [24],9.0
same,SAGPY,[3]; [25],9.0
same,SAGPY,[3]; [26],9.0
same,ORYSAT,[4],9.0
same,ECHORC,[5]; [23],9.0
same,ECHORC,[5]; [24],9.0
same,ECHORC,[5]; [25],9.0
same,ECHORC,[5]; [26],9.0
same,CYPSE,[6]; [23],9.0
same,CYPSE,[6]; [24],9.0
same,CYPSE,[6]; [25],9.0
same,CYPSE,[6]; [26],9.0
"C#CCOC(=O)C(C)(C)Oc1ccc(C)cc1-c1nsc2ccc(-n3c(=O)cc(C(F)(F)F)n(C)c3=O)cc12 [Example 528, Propionic acid, 2-{{2-{5-[3,6-dihydro-3-methyl-2,6-dioxo-4-(trifluoromethyl)-1(2H)-pyrimidinyl]-1,2-benzisothiazol-3-yl}-p-tolyl}oxy}-2-methyl-, 2-propynyl ester]","herbicidal effect rating, CYPIR",[1]; [27],4.5
same,"herbicidal effect rating, CYPIR",[1]; [28],5.0
same,"herbicidal effect rating, CYPIR",[1]; [29],5.0
same,"herbicidal effect rating, CYPIR",[1]; [30],9.0
same,"herbicidal effect rating, MOOVA",[2]; [27],9.0
same,"herbicidal effect rating, MOOVA",[2]; [28],9.0
same,"herbicidal effect rating, MOOVA",[2]; [29],9.0
same,"herbicidal effect rating, MOOVA",[2]; [30],9.0
same,"herbicidal effect rating, SAGPY",[3]; [27],1.0
same,"herbicidal effect rating, SAGPY",[3]; [28],0.0
same,"herbicidal effect rating, SAGPY",[3]; [29],1.5
same,"herbicidal effect rating, SAGPY",[3]; [30],3.0
same,herbicidal effect rating ORYSAT,[7]; Rate 0.0320 kg/ha,1.5
same,herbicidal effect rating ORYSAT,[7]; Rate 0.0620 kg/ha,3.5
same,herbicidal effect rating ORYSAT,[7]; Rate 0.1250 kg/ha,7.0
same,herbicidal effect rating ORYSAT,[7]; Rate 0.2500 kg/ha,9.0
same,"herbicidal effect rating, CYPSE",[8]; Rate 0.0320 kg/ha,0.0
same,"herbicidal effect rating, CYPSE",[8]; Rate 0.0620 kg/ha,0.0
same,"herbicidal effect rating, CYPSE",[8]; Rate 0.1250 kg/ha,0.0
same,"herbicidal effect rating, CYPSE",[8]; Rate 0.2500 kg/ha,9.0
same,"herbicidal effect rating, CYPIR",[9]; Rate 0.0320 kg/ha,6.0
same,"herbicidal effect rating, CYPIR",[9]; Rate 0.0620 kg/ha,6.0
same,"herbicidal effect rating, CYPIR",[9]; Rate 0.1250 kg/ha,6.0
same,"herbicidal effect rating, CYPIR",[9]; Rate 0.2500 kg/ha,6.0
same,"herbicidal effect rating, ECHORC",[10]; Rate 0.0320 kg/ha,0.0
same,"herbicidal effect rating, ECHORC",[10]; Rate 0.0620 kg/ha,7.0
same,"herbicidal effect rating, ECHORC",[10]; Rate 0.1250 kg/ha,9.0
same,"herbicidal effect rating, ECHORC",[10]; Rate 0.2500 kg/ha,9.0
same,"herbicidal effect rating, MOOVA",[11]; Rate 0.0320 kg/ha,0.0
same,"herbicidal effect rating, MOOVA",[11]; Rate 0.0620 kg/ha,0.0
same,"herbicidal effect rating, MOOVA",[11]; Rate 0.1250 kg/ha,9.0
same,"herbicidal effect rating, MOOVA",[11]; Rate 0.2500 kg/ha,9.0
same,"herbicidal effect rating, ECHORC",[5]; [27],9.0
same,"herbicidal effect rating, ECHORC",[5]; [28],9.0
same,"herbicidal effect rating, ECHORC",[5]; [29],9.0
same,"herbicidal effect rating, ECHORC",[5]; [30],9.0
same,"herbicidal effect rating, CYPSE",[6]; [27],0.0
same,"herbicidal effect rating, CYPSE",[6]; [28],0.0
same,"herbicidal effect rating, CYPSE",[6]; [29],0.0
same,"herbicidal effect rating, CYPSE",[6]; [30],0.0
same,"herbicidal effect rating, SAGPY",[12]; Rate 0.0320 kg/ha,0.0
same,"herbicidal effect rating, SAGPY",[12]; Rate 0.0620 kg/ha,0.0
same,"herbicidal effect rating, SAGPY",[12]; Rate 0.1250 kg/ha,0.0
same,"herbicidal effect rating, SAGPY",[12]; Rate 0.2500 kg/ha,3.0
same,"herbicidal effect rating, ORYSAT (rice tolerance)",[13]; Rate 0.0320 kg/ha,0.0
same,"herbicidal effect rating, ORYSAT (rice tolerance)",[13]; Rate 0.0620 kg/ha,0.0
same,"herbicidal effect rating, ORYSAT (rice tolerance)",[13]; Rate 0.1250 kg/ha,2.0
same,"herbicidal effect rating, ORYSAT (rice tolerance)",[13]; Rate 0.2500 kg/ha,3.0
"Cc1ccc(OCC(=O)c2ccccc2)c(-c2nsc3ccc(-n4c(=O)cc(C(F)(F)F)n(C)c4=O)cc23)c1 [Example 537, 2,4(1H,3H)-Pyrimidinedione, 1-methyl-3-{3-[6-(phenacyloxy)-m-tolyl]-1,2-benzisothiazol-5-yl}-6-(trifluoromethyl)-]","herbicidal effect rating, CYPIR",[1]; [27],0.0
same,"herbicidal effect rating, CYPIR",[1]; [28],0.0
same,"herbicidal effect rating, CYPIR",[1]; [29],1.0
same,"herbicidal effect rating, CYPIR",[1]; [30],4.0
same,"herbicidal effect rating, CYPIR",[1]; [31],9.0
same,"herbicidal effect rating, MOOVA",[2]; [27],9.0
same,"herbicidal effect rating, MOOVA",[2]; [28],9.0
same,"herbicidal effect rating, MOOVA",[2]; [29],9.0
same,"herbicidal effect rating, MOOVA",[2]; [30],9.0
same,"herbicidal effect rating, MOOVA",[2]; [31],9.0
same,"herbicidal effect rating, SAGPY",[3]; [27],0.0
same,"herbicidal effect rating, SAGPY",[3]; [28],0.0
same,"herbicidal effect rating, SAGPY",[3]; [29],0.0
same,"herbicidal effect rating, SAGPY",[3]; [30],0.0
same,"herbicidal effect rating, SAGPY",[3]; [31],0.0
same,herbicidal effect rating ORYSAT,[4],0.0
same,"herbicidal effect rating, ECHORC",[5]; [27],3.4
same,"herbicidal effect rating, ECHORC",[5]; [28],4.4
same,"herbicidal effect rating, ECHORC",[5]; [29],5.0
same,"herbicidal effect rating, ECHORC",[5]; [30],9.0
same,"herbicidal effect rating, ECHORC",[5]; [31],9.0
same,"herbicidal effect rating, CYPSE",[6]; [27],0.0
same,"herbicidal effect rating, CYPSE",[6]; [28],0.0
same,"herbicidal effect rating, CYPSE",[6]; [29],0.0
same,"herbicidal effect rating, CYPSE",[6]; [30],0.0
same,"herbicidal effect rating, CYPSE",[6]; [31],0.0
